In patent US12403115B2, “Asymmetric synthesis and uses of compounds in disease treatments” (Zhejiang Jiachi Development Pharmaceuticals LTD., priority 2017, dated 2025):
Entries after “also recorded” stand apart in the source; their conditions may differ.

Columns and labels:
OVX female mice [1] = experiment: OVX mice: vulvovagina atrophy (vagina wet mass, H&E sections, thickness of vulvovagina wall); assay type: in vivo; settings: given by food, three months
Procedure: (§1) In this Example, studies have been shown the estrogenic effects of α- and β-anordrins on estrogen-modulated metabolic signaling and tissue atrophy. The ovaries of 7 week old mice were surgically excised. One week post surgery, the mice were given isoflavone, α-anordrin or β-anordrin by food. Body mass, blood glucose and food intake were measured monthly. After three months. Mice were sacrificed. The leg and spine bone, liver, uterus and vagina were harvested.
(§2) The ovaries of 6 week old mice were excised by surgery. 3 days post surgery drugs were administered by gastric tract injection every day or mixed with food.
(§3) Vagina was cut at the middle site. Both uterine site and vulvovaginal site were embedded in paraffin at the same direction for H&E section preparation. The thickness of vulvovaginal wall was measured from 40× magnification images of Paraffin-embedded H&E mice vagina sections.

mouse vagina = experiment: Anastrozole-induced vagina atrophy in mice (vagina wet mass, H&E sections); assay type: in vivo; settings: food containing drug plus equal amount of anastrozole, 6 months
Description: (§4) Aromatase inhibitors were administrated to ER positive breast in post-menopausal women. […] It was administrated to ER positive breast cancer in post menopausal women. […] Vulvovagina atrophy usually results in infection of vagina and urinary tract. As an example, we tested whether α-anordrin or β-anordrin eliminates anastrozole-induced uterus and vulvovagina atrophy, and osteoporosis. […] Mice were then sacrificed to harvest vagina, leg and spine bone. The tissues were fixed in paraformaldehyde.
as §3

OVX female mice [2] = experiment: OVX mice: uterus atrophy (uterine wet mass, H&E sections); assay type: in vivo; settings: three months
Procedure: as §1, §2

OVX female mice [3] = experiment: OVX mice: blood glucose, blood TG, body mass and food uptake; assay type: in vivo
Procedure: as §1
glucose concentration in medium or total blood from mouse tail was measured using glucose assay kits following manufacturer's instructions (Yicheng, Beijing).
as §2

OVX female mice [4] = experiment: OVX mice: TG accumulation in liver (H&E sections, liver TG); assay type: in vivo; settings: given by food
Procedure: as §1, §2
The error was corrected by using internal standard controls.

mice bone = experiment: Anastrozole-induced osteoporosis in mice by micro-CT (BMD, BV/TV, Tb.N); assay type: in vivo; settings: for inhibition of anastrozole-induced osteoporosis (micro-CT): food containing drug plus equal amount of anastrozole, 6 months
Description: as §4
(§5) Thighbone was fixed in 1×DPBS containing 3% formaldehyde for two weeks. The fixation solution was exchanged after one week. The density of thighbone was measured by Siemens Inveon Micro-CT. Inveon Research Workplace (IRW) was used to analyze the HU2000 value at the following measurement conditions: 80 KVP, […], 1500 ms exposure time; CCD Readout installation: 2048axial, 2048 binning; FOV Transaxial: 19.03 mm, axial: 19.03 mm, pixels size: 9.29 μm.

OVX female mice [5] = experiment: OVX mice: osteoporosis by micro-CT (BMD, BV/TV); assay type: in vivo; settings: for prevention of osteoporosis (micro-CT): OVX mice, given by food, three months
Procedure: as §1, §2, §5

mouse liver = tested on: mouse liver
Procedure: (§6) Tamoxifen was the first FDA-approved drug for breast cancer patients with positively expressed ER. […] We further tested whether α-anordrin or β-anordrin eliminates tamoxifen-induced EEC mitosis. […] Mice were then sacrificed to harvest uterus and liver. Uterine and liver tissues were fixed.
(§7) The tissue of mice was excised by surgery and fixed using 4% paraformaldehyde in 1×DPBS (Beijing Solar Bioscience & Technology co., Ltd). Paraffin section preparation and HE staining was performed by GLP laboratory of BK animal model, Inc.
30-50 mg of mouse liver was excised by surgery and homogenized in 1 ml Cholroform:Methanol (2:1) mixture and extracted using 0.5 ml ddH2O. The organic phase was transferred to new tubes and air dried. The amount of TG was measured using kits following manufacturer's instructions. The error was corrected by using internal standard controls.

mice uterus EECs = tested on: mice uterus EECs
Procedure: as §6, §7
EEC height was measured from 20-200× magnification EEC images of Paraffin-embedded H&E mice uterus sections.

[6] = tested on: endometrial epithelial cell (EEC); settings: earlier finding of the applicants, no method given here (cf. reference 21); cited from earlier work
[7] = combination with equal amount of anastrozole, micro-CT
[8] = mice, food containing drug plus tamoxifen, 6 months

## C#C[C@@]1(OC(=O)CC)CC2CCC3C(CC[C@@]4(C)C3CC[C@]4(C#C)OC(=O)CC)[C@@]2(C)C1 (single isomer, unassigned) [α-anordrin, (2α,17α)-diethynyl-(2β, 17β)-diol-dipropionate-A-nor-5α-androstane]
OVX female mice [1]
  prevention of vulvovagina atrophy (uterus and vagina wet mass and H&E staining): prevented vulvovagina atrophy; also recorded: dosage dependent activity to prevent the atrophy of vulvovagina
Mouse vagina
  inhibition of anastrozole-induced vagina atrophy (vagina wet mass, H&E sections): inhibits anastrozole-induced vagina atrophy
OVX female mice [2]; OVX female mice, lower dosage, compared with sham group
  prevention of uterus atrophy: did not prevent the uterus atrophy
OVX female mice [2]; OVX mice, given by food
  atrophy symptom in uterus: less atrophy symptom in uterus compared with those mice treated by β-anordrin and blank groups
OVX female mice [3]; after administration of drugs by food
  body mass: less and dosage dependent activity to decrease
OVX female mice [3]; given by food
  blood glucose: less and dosage dependent activity to decrease
  blood triglyceride (TG): less and dosage dependent activity to decrease
OVX female mice [4]
  amount of liver TG (liver H&E section and statistical analysis): decreased the amount of liver TG; also recorded: dosage dependent activity to prevent TG accumulation in liver
Mice bone; [7]
  inhibition of anastrozole-induced decrease of BV/TV: inhibits anastrozole-induced the ratio decreasing of bone volume (BV)/bone trabecular volume (TV) (BV/TV)
  inhibition of anastrozole-induced decrease of bone trabecula number (Tb.N): inhibits anastrozole-induced the decreasing of bone trabecula number (Tb.N)
  inhibition of anastrozole-induced loss of bone mean density (BMD): inhibits anastrozole-induced the loss of bone mean density (BMD)
Mice bone
  inhibition of anastrozole-induced osteoporosis (micro-CT): inhibited anastrozole-induced osteoporosis; also recorded: inhibits anastrozole-induced osteoporosis in bone
OVX female mice [5]; OVX female mice, micro-CT
  prevention of the decrease of bone volume (BV)/bone trabecula volume (TV) ratio (BV/TV): more activity to prevent the ratio decreasing of bone volume (BV)/bone trabecula volume (TV) (BV/TV) compared with β-anordrin
  prevention of the loss of bone mean density (BMD): more activity to prevent the loss of bone mean density (BMD) compared with β-anordrin
OVX female mice [5]
  prevention of osteoporosis (micro-CT): prevented osteoporosis; also recorded: more actively to prevent the osteoporosis compared with β-anordrin

## CC/C(=C(\c1ccccc1)c1ccc(OCCN(C)C)cc1)c1ccccc1 [TAM, tamoxifen, reference compound]
Mouse liver; mouse, in vivo
  fatty deposition in liver cells (H&E staining sections): high fatty deposition in liver cells
Mice uterus EECs; mouse, in vivo
  appearance of EECs in H&E staining sections: rough and mitotic

## C#C[C@@]1(OC(=O)CC)C[C@@H]2CC[C@@H]3[C@H](CC[C@@]4(C)[C@H]3CC[C@]4(C#C)OC(=O)CC)[C@@]2(C)C1 [anordrin]
[6]
  elimination of tamoxifen-induced endometrial epithelial cell (EEC) mitosis: can eliminate tamoxifen-induced endometrial epithelial cell (EEC) mitosis

## C#C[C@]1(OC(=O)CC)C[C@@H]2CC[C@@H]3[C@H](CC[C@@]4(C)[C@H]3CC[C@]4(C#C)OC(=O)CC)[C@@]2(C)C1 [β-anordrin, (2β,17α)-diethynyl-(2α,17β)-diol-dipropionate-A-nor-5α-androstane, reference compound]
OVX female mice [1]
  prevention of vulvovagina atrophy (uterus and vagina wet mass and H&E staining): not β-anordrin prevented vulvovagina atrophy
Mouse vagina
  inhibition of anastrozole-induced vagina atrophy (vagina wet mass, H&E sections): not β-anordrin inhibited anastrozole-induced vagina atrophy
OVX female mice [4]
  amount of liver TG (liver H&E section and statistical analysis): not β-anordrin decreased the amount of liver TG
Mice bone
  inhibition of anastrozole-induced osteoporosis (micro-CT): not β-anordrin inhibited anastrozole-induced osteoporosis
Mouse liver; [8]
  inhibition of tamoxifen-induced NASH: not β-anordrin inhibited
Mice uterus EECs; [8]
  inhibition of tamoxifen-induced EEC mitosis: not β-anordrin inhibited tamoxifen-induced EEC mitosis
OVX female mice [5]
  prevention of osteoporosis (micro-CT): not 3-anordrin prevented osteoporosis
